Patent US10785976B2, “Methods and compositions for environmentally friendly pest control” (BAYER CROPSCIENCE LP, priority 2016, dated 2020)
Counter-ions that a name gives are not always drawn.

Test system: Aedes aegypti
Assay: Direct spray treatment (pump-sprayer), knock down and/or mortality
Assay type: in vivo
Method: The efficacy of a non-VOC solvent formulation of the invention was evaluated using a pump-sprayer against Culex quinquefasciatus and Aedes aegypti. The non-VOC solvent formulation of the invention comprising acetyl tributyl citrate (Formulation 1) was applied at a concentration of either 15.75 mg/ml or 31.5 mg/ml from a distance of approximately 15 cm. Controls were sprayed with water. The experiment was replicated five times and ten insects were sprayed per replicate.
Percentage knock-down and/or mortality was determined at three time points: 30 minutes following treatment; 1 hour following treatment; and 24 hours following treatment. The findings are presented below in Tables 4 and 5.
Further studies were conducted using acetyl tributyl citrate as described in Table 6.

Measured: % knock down and/or mortality of Aedes aegypti (out of 10 per replicate) after direct spray treatment

CCCCOC(=O)CC(CC(=O)OCCCC)(OC(C)=O)C(=O)OCCCC [Citroflex A-4, acetyl tributyl citrate]
100%: Many spray pushes pure Citroflex A4 (1 ml), 1 hour | Many spray pushes pure Citroflex A4 (1 ml), 24 hour mortality | One spray push Citroflex 1:1 with tap water, 1 hour | One spray push Citroflex 1:1 with tap water, 24 hour mortality | One spray push pure Citroflex A4 (1 ml), 1 hour | One spray push pure Citroflex A4 (1 ml), 24 hour mortality
